Experimental data taken from patent publication US11925667B2, “Engineered therapeutic probiotic system and method” (priority 2018, dated 2024).
Where two headings read alike, the source gives them in different places.

How the values were obtained:
[1] = system: human esophageal smooth muscle primary cells (SMCs); assay: Cell toxicity assay (MTT), SMC; assay type: cell-based; settings: for GI50: Homo sapiens, read-out: GI 50 value
Source text: (§1) Cell culture and toxicity assay. While HCT116 human colorectal carcinoma cells (ATCC, Manassas, USA), LoVo human colorectal adenocarcinoma cells (ATCC), AGS human gastric adenocarcinoma cells (ATCC), MCF7 human breast adenocarcinoma cells (ATCC), human esophageal smooth muscle primary cells (SMCs) (Cell Biologics, Chicago, USA) and CT26 mouse colorectal carcinoma cells (ATCC) are used according to the claimed invention, other illustrative cell lines may similarly be utilized. Cells are cleared of mycoplasma contamination prior to use using Mycoalert™ PLUS mycoplasma detection kit (Lonza). HCT116 cells are cultured in McCoy's 5A medium, LoVo and AGS cells in Ham's F12 medium, MCF7 cells in DMEM medium, CT26 cells in RPMI medium, and SMCs in the specific medium kit purchased from Cell Biologics. In this illustrative embodiment, unless otherwise stated all cell culture media are purchased from Lonza (Walkersville, USA) and are supplemented with antibiotics (penicillin/streptomycin) and 5% fetal bovine serum (FBS, v/v). SMCs are prepared according to the manufacturer's protocol. All cell cultures are maintained at 37° C. and 5% CO2.
The MTT readout is fitted to a dose-response curve to determine the GI50 value (Eq. 2). Absorbance (570 nm)=Bottom+(Top−Bottom)/(1+10^(([Inhibitor]−Log 10 GI50))) (Eq. 2) HlpA binding assay. The HlpA gene sequence is optimized for E. coli expression, and the gene is cloned into a pET28b vector with an N-terminal GFP. GFP-HlpA and GFP are expressed using similar purification protocols, described above. […] Treated and adherent cells are washed with sterile PBS twice before staining with DAPI. The GFP/DAPI ratio is used to evaluate the binding ratio of protein binding per cell (Eq. 3). Ratio (GFP/DAPI)=Bottom+(Top−Bottom)/(1+10^(([Ligand]−Log 10 KD))) (Eq. 3) Similarly, N-terminal INP tagged to HlpA are cloned into the pBbE8K vector and co390 transformed with pBbE8a-RFP into E. coli Nissle. E. coli cells are cultured in LB supplemented with 50 mg/L ampicillin and 25 mg/L kanamycin and are induced with 1% arabinose. […] The cancer 394 cells are washed twice with 1×PBS and measured for DAPI and RFP emission. The fluorescence emission is compared on the linear standard curve of stained cells against the average fluorescence emission to determine the binding ratio of E. coli to cancer cells.

[2] = system: AGS human gastric adenocarcinoma cells; assay: Cell toxicity assay (MTT), AGS; assay type: cell-based; settings: for Complete inhibition: AGS gastric; for GI50: Homo sapiens, read-out: GI 50 value
Source text: as §1, with “CO2. Cells are seeded in 96-well plates or on glass coverslips in 6-well plates at a density of […] and are cultured at 37° C. and 5% CO2 a day before protein-binding studies or co-culturing with transformed Nissle cells.” for “CO2.”
(§2) Cellular viability is measured at 3 hours, 24 hours and 72 hours post-treatment using the MTT assay (Sigma, St. Louis, USA). The inhibitory activity of myrosinase-converted AITC is performed by incubating cancer cells grown to 60% confluency with 0.1 μM of purified secreted I1 myrosinase with 0˜10 mM sinigrin at 37° C. and 5% CO2 and was sampled at 3 hours, 24 hours and 72 hours post-treatment. The MTT readout is fitted to a dose-response curve to determine the GI50 value (Eq. 2). Absorbance (570 nm)=Bottom+(Top−Bottom)/(1+10^(([Inhibitor]−Log 10 GI50))) (Eq. 2) HlpA binding assay. The HlpA gene sequence is optimized for E. coli expression, and the gene is cloned into a pET28b vector with an N-terminal GFP. GFP-HlpA and GFP are expressed using similar purification protocols, described above. […] Treated and adherent cells are washed with sterile PBS twice before staining with DAPI. The GFP/DAPI ratio is used to evaluate the binding ratio of protein binding per cell (Eq. 3). […] The cancer 394 cells are washed twice with 1×PBS and measured for DAPI and RFP emission. The fluorescence emission is compared on the linear standard curve of stained cells against the average fluorescence emission to determine the binding ratio of E. coli to cancer cells.

[3] = system: LoVo human colorectal adenocarcinoma cells; assay: Cell toxicity assay (MTT), LoVo; assay type: cell-based; settings: for GI50: Homo sapiens, LoVo, read-out: GI 50 value; for Complete inhibition: LoVo colorectal
Source text: as §1, with “CO2. Cells are seeded in 96-well plates or on glass coverslips in 6-well plates at a density of […] and are cultured at 37° C. and 5% CO2 a day before protein-binding studies or co-culturing with transformed Nissle cells.” for “CO2.”
as §2

[4] = system: CT26 mouse colorectal carcinoma cells; assay: Cell toxicity assay (MTT), CT26; assay type: cell-based; settings: for Complete inhibition: CT26 colorectal; for GI50: Mus musculus, CT26, read-out: GI 50 value
Source text: as §1, with “CO2. Cells are seeded in 96-well plates or on glass coverslips in 6-well plates at a density of […] and are cultured at 37° C. and 5% CO2 a day before protein-binding studies or co-culturing with transformed Nissle cells.” for “CO2.”
as §2

[5] = system: HCT116 human colorectal carcinoma cells; assay: Cell toxicity assay (MTT), HCT116; assay type: cell-based; settings: for Complete inhibition: HCT116 colorectal; for GI50: Homo sapiens, HCT-116, read-out: GI 50 value
Source text: as §1, with “CO2. Cells are seeded in 96-well plates or on glass coverslips in 6-well plates at a density of […] and are cultured at 37° C. and 5% CO2 a day before protein-binding studies or co-culturing with transformed Nissle cells.” for “CO2.”
as §2

[6] = system: MCF7 human breast adenocarcinoma cells; assay: Cell toxicity assay (MTT), MCF7; assay type: cell-based; settings: for GI50: Homo sapiens, MCF7, read-out: GI 50 value; for Complete inhibition: MCF7 breast
Source text: as §1, with “CO2. Cells are seeded in 96-well plates or on glass coverslips in 6-well plates at a density of […] and are cultured at 37° C. and 5% CO2 a day before protein-binding studies or co-culturing with transformed Nissle cells.” for “CO2.”
as §2

[7] = system: various colorectal, gastric and breast cancer cell lines; assay: Growth inhibition (MTT), summary over cancer cell lines; assay type: cell-based; settings: read-out: 50% growth inhibition (GI50) values
Source text: as §1, with “In this illustrative embodiment, unless otherwise stated all cell culture media are purchased from Lonza (Walkersville, USA) and are supplemented with antibiotics (penicillin/streptomycin) and 5% fetal bovine serum (FBS, v/v). SMCs are prepared according to the manufacturer's protocol. All cell cultures are maintained at 37° C. and 5% CO2.” left out
(§3) The MTT readout is fitted to a dose-response curve to determine the GI50 value (Eq. 2). Absorbance (570 nm)=Bottom+(Top−Bottom)/(1+10^(([Inhibitor]−Log 10 GI50))) (Eq. 2) HlpA binding assay. […] The cancer 394 cells are washed twice with 1×PBS and measured for DAPI and RFP emission. The fluorescence emission is compared on the linear standard curve of stained cells against the average fluorescence emission to determine the binding ratio of E. coli to cancer cells.

[8] = system: various colorectal, gastric and breast cancer cell lines; assay: Growth inhibition in cancer cell lines; assay type: cell-based
Source text: as §1, with “In this illustrative embodiment, unless otherwise stated all cell culture media are purchased from Lonza (Walkersville, USA) and are supplemented with antibiotics (penicillin/streptomycin) and 5% fetal bovine serum (FBS, v/v). SMCs are prepared according to the manufacturer's protocol. All cell cultures are maintained at 37° C. and 5% CO2.” left out
as §3, with “Cellular viability is measured at 3 hours, 24 hours and 72 hours post-treatment using the MTT assay (Sigma, St. Louis, USA). […] The MTT” for “The MTT”

[9] = system: primary stem cells or other non-cancer cell lines; settings: in words; cited from earlier work

Compound: C=CCN=C=S [AITC, allyl isothiocyanate]
- GI50 [1]: 589 µM
- inhibition of primary smooth muscle cells [1]: does not inhibit
- Complete inhibition [2]: <24 h
- GI50 [2]: 18 µM
- GI50 [3]: 74 µM
- Complete inhibition [3]: <24 h
- Complete inhibition [4]: <24 h
- GI50 [4]: 15 µM
- Complete inhibition [5]: <24 h
- GI50 [5]: 116 µM
- GI50 [6]: 104 µM
- Complete inhibition [6]: <3 h
- GI50 [7]: ~100 µM
- Inhibition of cancer cell growth compared with L-sulforaphane ([8]; in words): poorer efficacy compared with L-sulforaphane

Compound: C[S@@+]([O-])CCCCN=C=S [L-sulforaphane]
- GI50 ([1]; SMC primary cells, MTT): 375 µM
- inhibition of primary smooth muscle cells [1]: does not inhibit
- Complete inhibition [2]: <24 h
- GI50 [2]: 15 µM
- GI50 [3]: 23 µM
- Complete inhibition [3]: <24 h
- Complete inhibition [4]: <24 h
- GI50 [4]: 45 µM
- Complete inhibition [5]: <24 h
- GI50 [5]: 30 µM
- GI50 [6]: 29 µM
- Complete inhibition [6]: <3 h
- GI50 ([7]; various colorectal, gastric and breast cancer cell lines): < 100 µM
- Growth inhibition observed within ([8]; upon adding L-sulforaphane): ≤ 24 h
- Effect on primary stem cells or other non-cancer cell lines [9]: does not affect
